Reference: patent US10214522B2, “Anti-alphavbeta1 integrin inhibitors and methods of use” (The Regents of the University of California, priority 2015, dated 2019)
pIC50: −log10 of the molar value.

Biological target: T1, αvβ1 integrin (UniProt G3HZ55+P06756)
T1 construct: expressed in transfected cells; host or cells: CHO cells (elsewhere described as α5-deficient CHO) transfected with human αv
Test: Cell Adhesion Assay (integrin-specific adhesion, αvβ1)
Type: cell-based
Conditions: CHO cells transfected with human αv adhering to 0.3 μg/ml fibronectin; read-out: Cell Adhesion Assay IC50 range
Method: The effects of compounds on cell adhesion mediated by […], α8β1, αvβ1, αvβ3, αvβ5, αvβ6, and αvβ8 are measured using pairs of cell lines and ligands selected to isolate the effect of each individual integrin. For α5β1 we utilize the colon carcinoma cell line, SW480, plated on 0.3 μg/ml fibronectin, for α8β1, we utilize SW480 cells transfected with human α8 adhering to 1 μg/ml recombinant TGFβ1 LAP [5], for αvβ1 we use Chinese Hamster Ovary Cells (CHO cells) transfected with human αv adhering to 0.3 μg/ml fibronectin [6], for αvβ3 we use SW480 cells transfected with human β3, for αvβ5 we use wild type SW480 cells adhering to 0.1 μg/ml vitronectin. For αvβ6 we use SW480 cells transfected with human β6 adhering to 0.01 μg/ml recombinant human TGFβ1 LAP. For αvβ8 we use glioma cell line (SNB19) expressing β8 adhering to 1 μg/ml recombinant human TGFβ1 LAP.
(§1) The effects of the compound on cell adhesion mediated by αvβ1 integrin were measured using Chinese Hamster Ovary Cells (CHO cells) transfected with human αv adhering to 0.3 μg/ml fibronectin. In every case, we confirmed that adhesion could be inhibited by blocking antibodies to αv and β1. Cells were resuspended in DMEM for 30 min at 4° C. with 10-fold dilutions of the compound with a starting concentration of 10 μM. Each sample was then added to triplicate wells of a 96-well plate which had been coated overnight at 4° C. with the relevant ligand, washed, blocked by 1 hr incubation with 1% BSA, and washed again. Cells were allowed to attach for 30-60 min at 37° C. After incubation, non-adherent cells were removed by discarding the media and spinning the plate top-side down at 500 rpm for 5 minutes. Cells were then fixed and stained with 40 ul of 0.5% Crystal violet, 1% Formaldehyde, 20% Methanol for 30 minutes and lysed with 2% Trition-X. Absorbance was measured at 595 nm in a Microplate reader. For all assays, concentration-response curves were constructed by non-linear regression analysis and IC50 values using Graphpad PRISM (ver 6.0).
as §1, with “Integrin specific” for “effects of the compound on cell”, “assays” for “mediated by αvβ1 integrin”, “In every case, we confirmed that adhesion could be inhibited by blocking antibodies to αv and β1.” left out

T1 sequence (P06756 31-889 limits assumed): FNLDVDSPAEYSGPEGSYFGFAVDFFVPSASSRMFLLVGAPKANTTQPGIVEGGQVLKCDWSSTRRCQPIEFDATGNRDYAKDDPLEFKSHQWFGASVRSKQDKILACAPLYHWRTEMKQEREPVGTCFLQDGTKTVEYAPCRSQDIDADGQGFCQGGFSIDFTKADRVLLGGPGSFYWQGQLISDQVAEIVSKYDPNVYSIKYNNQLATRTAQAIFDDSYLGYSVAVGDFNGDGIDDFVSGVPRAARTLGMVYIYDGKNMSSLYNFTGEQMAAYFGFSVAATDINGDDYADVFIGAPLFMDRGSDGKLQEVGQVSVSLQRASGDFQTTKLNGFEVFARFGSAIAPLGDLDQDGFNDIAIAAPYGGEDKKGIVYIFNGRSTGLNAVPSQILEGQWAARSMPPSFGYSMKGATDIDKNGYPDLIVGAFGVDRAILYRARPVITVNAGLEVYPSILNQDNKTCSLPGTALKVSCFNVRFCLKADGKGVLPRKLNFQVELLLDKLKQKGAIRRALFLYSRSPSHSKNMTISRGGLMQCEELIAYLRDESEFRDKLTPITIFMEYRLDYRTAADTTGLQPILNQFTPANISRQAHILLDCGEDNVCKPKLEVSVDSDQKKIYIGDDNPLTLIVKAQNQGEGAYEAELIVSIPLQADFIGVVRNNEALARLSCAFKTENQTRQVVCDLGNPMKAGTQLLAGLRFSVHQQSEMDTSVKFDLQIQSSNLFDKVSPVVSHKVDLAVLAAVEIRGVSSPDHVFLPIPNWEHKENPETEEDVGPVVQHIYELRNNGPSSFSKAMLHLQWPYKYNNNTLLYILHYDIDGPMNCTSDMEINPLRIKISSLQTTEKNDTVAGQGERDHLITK
T1 sequence (P06756 891-1048 limits assumed): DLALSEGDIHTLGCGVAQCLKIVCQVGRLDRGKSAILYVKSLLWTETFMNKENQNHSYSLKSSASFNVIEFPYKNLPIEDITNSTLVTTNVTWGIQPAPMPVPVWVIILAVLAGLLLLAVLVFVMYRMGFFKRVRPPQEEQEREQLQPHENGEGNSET
T1 sequence (G3HZ55 21-798): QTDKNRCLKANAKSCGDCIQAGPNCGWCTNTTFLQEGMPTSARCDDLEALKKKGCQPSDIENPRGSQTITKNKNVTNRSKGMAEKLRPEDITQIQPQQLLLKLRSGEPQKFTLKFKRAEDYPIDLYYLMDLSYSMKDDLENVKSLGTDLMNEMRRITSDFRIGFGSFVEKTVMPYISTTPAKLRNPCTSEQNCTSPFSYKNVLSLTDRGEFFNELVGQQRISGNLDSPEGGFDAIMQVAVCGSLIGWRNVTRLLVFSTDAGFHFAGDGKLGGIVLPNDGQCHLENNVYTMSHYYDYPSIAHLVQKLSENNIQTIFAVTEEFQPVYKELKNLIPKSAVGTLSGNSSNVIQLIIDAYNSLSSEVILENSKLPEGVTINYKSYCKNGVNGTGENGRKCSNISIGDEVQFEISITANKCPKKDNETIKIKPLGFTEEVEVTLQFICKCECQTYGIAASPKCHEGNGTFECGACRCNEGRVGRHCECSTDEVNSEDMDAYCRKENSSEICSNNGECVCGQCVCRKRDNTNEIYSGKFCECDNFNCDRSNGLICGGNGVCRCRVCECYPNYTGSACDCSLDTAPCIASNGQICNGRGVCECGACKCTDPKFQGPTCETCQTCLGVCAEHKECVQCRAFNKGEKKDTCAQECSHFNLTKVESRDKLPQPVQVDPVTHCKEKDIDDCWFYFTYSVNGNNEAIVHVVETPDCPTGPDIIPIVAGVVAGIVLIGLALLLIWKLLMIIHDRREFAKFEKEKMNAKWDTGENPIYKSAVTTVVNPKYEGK

| SMILES | pIC50 |
| --- | --- |
| COc1cccc(OC)c1C(=O)N[C@@H](Cc1ccc(NC(=O)CCCNc2ccccn2)cc1)C(=O)O [HIJ-886, (S)-2-(2,6-dimethoxybenzamido)-3-(4-(4-(pyridin-2-ylamino)butanamido)phenyl)propanoic acid] | 5.00 to 7.00 |
| Cc1cccc(Cl)c1C(=O)N[C@@H](Cc1ccc(NC(=O)CCCNc2ccccn2)cc1)C(=O)O [HIJ-888, (S)-2-(2-chloro-6-methylbenzamido)-3-(4-(4-(pyridin-2-ylamino)butanamido)phenyl)propanoic acid] | 5.00 to 7.00 |
| O=C(CCCNc1ccccn1)Nc1ccc(C[C@H](NC(=O)c2c(F)cccc2Br)C(=O)O)cc1 [HIJ-889, (S)-2-(2-bromo-6-fluorobenzamido)-3-(4-(4-(pyridin-2-ylamino)butanamido)phenyl)propanoic acid] | > 7.00 |
| Cc1cccc(C)c1C(=O)N[C@@H](Cc1ccc(NC(=O)CCCNc2ccccn2)cc1)C(=O)O [HIJ-890, (S)-2-(2,6-dimethylbenzamido)-3-(4-(4-(pyridin-2-ylamino)butanamido)phenyl)propanoic acid] | > 7.00 |
| CSc1ccccc1C(=O)N[C@@H](Cc1ccc(NC(=O)CCCNc2ccccn2)cc1)C(=O)O [HIJ-891, (S)-2-(2-(methylthio)benzamido)-3-(4-(4-(pyridin-2-ylamino)butanamido)phenyl)propanoic acid] | 5.00 to 7.00 |
| O=C(CCCNc1ccccn1)Nc1ccc(C[C@H](NC(=O)c2cccc(-c3ccccc3)c2)C(=O)O)cc1 [HIJ-892, (S)-2-([1,1′-biphenyl]-3-carboxamido)-3-(4-(4-(pyridin-2-ylamino)butanamido)phenyl)propanoic acid] | 5.00 to 7.00 |
| Cc1ccnc(NCCCC(=O)Nc2ccc(C[C@H](NC(=O)c3c(Cl)cccc3Cl)C(=O)O)cc2)c1 [HU-899] | > 7.00 |
| N=C(N)NCCc1cn(-c2ccc(C[C@H](NC(=O)c3c(Cl)cccc3Cl)C(=O)O)cc2)nn1 [JM-39, (S)-2-(2,6-dichlorobenzamido)-3-(4-(4-(2-guanidinoethyl)-1H-1,2,3-triazol-1-yl)phenyl)propanoic acid] | 5.00 to 7.00 |
| O=C(CCCCNC1=NCCN1)Nc1ccc(C[C@H](NC(=O)c2c(Cl)cccc2Cl)C(=O)O)cc1 [JM-61] | 5.00 to 7.00 |
| N=C(N)NCCCn1cc(-c2ccc(C[C@H](NC(=O)c3c(Cl)cccc3Cl)C(=O)O)cc2)nn1 [JM-141] | > 7.00 |
| N=C(N)Nc1ccc2c(c1)C(=O)N(c1ccc(C[C@H](NC(=O)c3c(Cl)cccc3Cl)C(=O)O)cc1)CC2 [JM-175] | 5.00 to 7.00 |
| N=C(N)NCCCc1coc(-c2ccc(C[C@H](NC(=O)c3c(Cl)cccc3Cl)C(=O)O)cc2)n1 [JM-185] | 5.00 to 7.00 |
| N=C(N)NCCCc1csc(-c2ccc(C[C@H](NC(=O)c3c(Cl)cccc3Cl)C(=O)O)cc2)n1 [JM-192] | 5.00 to 7.00 |
| O=C(N[C@@H](Cc1ccc(-n2cc(CNc3ccccn3)nn2)cc1)C(=O)O)c1c(Cl)cccc1Cl [JM-230] | 5.00 to 7.00 |
| O=C(CCCCNc1ccccn1)Nc1ccc(C[C@H](NC(=O)c2c(Cl)cccc2Cl)C(=O)O)cc1 [YT-43] | 5.00 to 7.00 |
| O=C(CCCc1ccc2c(n1)NCCC2)Nc1ccc(C[C@H](NC(=O)c2c(Cl)cccc2Cl)C(=O)O)cc1 [YT-101] | 5.00 to 7.00 |
| O=C(CCCNc1ccccn1)Nc1ccc(C[C@H](NC(=O)c2c(Cl)cccc2Cl)C(=O)O)cc1 [YT-103, (S)-2-(2,6-dichlorobenzamido)-3-(4-(4-(pyridin-2-ylamino)butanamido)phenyl)propanoic acid] | > 7.00 |
| N=C(N)NCCCC(=O)Nc1ccc(C[C@H](NC(=O)c2c(Cl)cccc2Cl)C(=O)O)cc1 [YT-107] | 5.00 to 7.00 |
| O=C(CCCCc1ccc2c(n1)NCCC2)Nc1ccc(C[C@H](NC(=O)c2c(Cl)cccc2Cl)C(=O)O)cc1 [YT-115] | 5.00 to 7.00 |
| O=C(CCc1ccc2c(n1)NCCC2)Nc1ccc(C[C@H](NC(=O)c2c(Cl)cccc2Cl)C(=O)O)cc1 [YT-119] | > 7.00 |
